pEC50: −log10 of the molar value.
Key:
HUVEC = experiment: In vitro cell proliferation assay (MTT); type: cell-based; details: Homo sapiens, 72 h
Method: Cancer cell lines (5×10^3 cells per well) or HUVEC (1×10^4 cells per well) or HRMEC (1×10^4 cells per well) were distributed in 96-well plates and incubating in duplicate with escalating concentrations (10 nM to 3 μM) of compounds for 72 hr. Cell proliferation was measured using MTT (3 [4,5-dimethylthiazol-2-yl]-2,5-diphenyltetrazolium bromide).

HepG2 = experiment: In vitro cell proliferation assay (MTT); type: cell-based; details: Homo sapiens, HepG2, 72 h
How it was run: (§1)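 Growth is assessed with the tetrazolium dye MTT following a 72 hr incubation with compound spanning 10 nM up to 3 μM, each dose tested twice on 5×10^3 plated cells per well.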

HuCCT1 = experiment: In vitro cell proliferation assay (MTT); type: cell-based; details: Homo sapiens, HuCCT-1, 72 h
How it was run: as §1

BxPC-3 = experiment: In vitro cell proliferation assay (MTT); type: cell-based; details: Homo sapiens, BXPC-3, 72 h
How it was run: as §1

H1975 = experiment: In vitro cell proliferation assay (MTT); type: cell-based; details: Homo sapiens, NCI-H1975, 72 h
How it was run: as §1

HT29 = experiment: In vitro cell proliferation assay (MTT); type: cell-based; details: Homo sapiens, HT-29, 72 h
How it was run: as §1

A549 = experiment: In vitro cell proliferation assay (MTT); type: cell-based; details: Homo sapiens, A549, 72 h
How it was run: as §1

HRMEC = experiment: In vitro cell proliferation assay (MTT); type: cell-based; details: 72 h
How it was run: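 MTT read-out of proliferation after 72 hr compound exposure; 5×10^3 cells/well, duplicate wells, dose range 10 nM–3 μM.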

ABL T315I = molecular target: T1, ABL T315I (Homo sapiens, UniProt P00519, T315I); experiment: In vitro kinase assay (Z′-LYTE); type: biochemical; details: read-out: % of inhibition of the kinase compared to the control
T1 construct: purchased Invitrogen
How it was run: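 Peptide/kinase mix combined with ATP (apparent Km) in 50 mM HEPES pH 7.5, 10 mM MgCl2, 1 mM EGTA, 0.01% BRIJ-35; compound present at 100 nM, except 10 μM for ABL T315I; DMSO 1% final. Protease development, then FRET emission ratio.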

FGFR2 = molecular target: T2, FGFR2 (Homo sapiens, UniProt P21802); experiment: In vitro kinase assay (Z′-LYTE); type: biochemical; details: read-out: % of inhibition of the kinase compared to the control
T2 construct: purchased Invitrogen
How it was run: (§2)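 Percent inhibition is derived from a coupled-enzyme fluorescence format in which unphosphorylated FRET peptide is preferentially proteolysed. Compounds are screened once at 100 nM (10 μM against ABL T315I) in 1% DMSO, with ATP at its apparent Km.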

SRC = molecular target: T3, SRC (Homo sapiens, UniProt P12931); experiment: In vitro kinase assay (Z′-LYTE); type: biochemical; details: read-out: % of inhibition of the kinase compared to the control
T3 construct: purchased Invitrogen
How it was run: as §2

BRAF = molecular target: T4, BRAF (Homo sapiens, UniProt P15056); experiment: In vitro kinase assay (Z′-LYTE); type: biochemical; details: compound 100 nM; ATP 100 μM; read-out: % of inhibition of the kinase compared to the control
T4 construct: purchased Invitrogen
How it was run: as §2

PDGFRB = molecular target: T5, PDGFRB (Homo sapiens, UniProt P09619); experiment: In vitro kinase assay (Z′-LYTE); type: biochemical; details: read-out: % of inhibition of the kinase compared to the control
T5 construct: purchased Invitrogen
How it was run: as §2

VEGFR1 = molecular target: T6, VEGFR1 (Homo sapiens, UniProt P17948); experiment: In vitro kinase assay (Z′-LYTE); type: biochemical; details: read-out: % of inhibition of the kinase compared to the control
T6 construct: purchased Invitrogen
How it was run: as §2

FGFR1 = molecular target: T7, FGFR1 (Homo sapiens, UniProt P11362); experiment: In vitro kinase assay (Z′-LYTE); type: biochemical; details: read-out: % of inhibition of the kinase compared to the control
T7 construct: purchased Invitrogen
How it was run: as §2

ABL = molecular target: T8, ABL (Homo sapiens, UniProt P00519); experiment: In vitro kinase assay (Z′-LYTE); type: biochemical; details: read-out: % of inhibition of the kinase compared to the control
T8 construct: purchased Invitrogen

KDR (VEGFR2) = molecular target: T9, KDR (VEGFR2) (Homo sapiens, UniProt P35968); experiment: In vitro kinase assay (Z′-LYTE); type: biochemical; details: read-out: % of inhibition of the kinase compared to the control
T9 construct: purchased Invitrogen
How it was run: as §2

EGFR (ErbB1) T790M L858R = molecular target: T10, EGFR (ErbB1) T790M L858R (Homo sapiens, UniProt P00533, L858R/T790M); experiment: In vitro kinase assay (Z′-LYTE); type: biochemical; details: read-out: % of inhibition of the kinase compared to the control
T10 construct: purchased Invitrogen
How it was run: as §2

EGFR (ErbB1) = molecular target: T11, EGFR (ErbB1) (Homo sapiens, UniProt P00533); experiment: In vitro kinase assay (Z′-LYTE); type: biochemical; details: read-out: % of inhibition of the kinase compared to the control
T11 construct: purchased Invitrogen
How it was run: as §2

PDGFRA (PDGFR alpha) = molecular target: T12, PDGFRA (PDGFR alpha) (Homo sapiens, UniProt P16234); experiment: In vitro kinase assay (Z′-LYTE); type: biochemical; details: read-out: % of inhibition of the kinase compared to the control
T12 construct: purchased Invitrogen
How it was run: as §2

HeLa = experiment: In vitro cell proliferation assay (MTT); type: cell-based; details: Homo sapiens, 72 h
How it was run: as §1

MDA-MB-231 = experiment: In vitro cell proliferation assay (MTT); type: cell-based; details: Homo sapiens, MDA-MB-231, 72 h
How it was run: as §1

HuH7 = experiment: In vitro cell proliferation assay (MTT); type: cell-based; details: Homo sapiens, Huh-7, 72 h
How it was run: as §1

HuH6 Clone 5 = experiment: In vitro cell proliferation assay (MTT); type: cell-based; details: HUH-6-clone5, 72 h
How it was run: as §1

PC-3 = experiment: In vitro cell proliferation assay (MTT); type: cell-based; details: Homo sapiens, PC-3, 72 h
How it was run: as §1

Caki-2 = experiment: In vitro cell proliferation assay (MTT); type: cell-based; details: Homo sapiens, CAKI-2, 72 h
How it was run: as §1

T11 sequence (P00533 25-1210): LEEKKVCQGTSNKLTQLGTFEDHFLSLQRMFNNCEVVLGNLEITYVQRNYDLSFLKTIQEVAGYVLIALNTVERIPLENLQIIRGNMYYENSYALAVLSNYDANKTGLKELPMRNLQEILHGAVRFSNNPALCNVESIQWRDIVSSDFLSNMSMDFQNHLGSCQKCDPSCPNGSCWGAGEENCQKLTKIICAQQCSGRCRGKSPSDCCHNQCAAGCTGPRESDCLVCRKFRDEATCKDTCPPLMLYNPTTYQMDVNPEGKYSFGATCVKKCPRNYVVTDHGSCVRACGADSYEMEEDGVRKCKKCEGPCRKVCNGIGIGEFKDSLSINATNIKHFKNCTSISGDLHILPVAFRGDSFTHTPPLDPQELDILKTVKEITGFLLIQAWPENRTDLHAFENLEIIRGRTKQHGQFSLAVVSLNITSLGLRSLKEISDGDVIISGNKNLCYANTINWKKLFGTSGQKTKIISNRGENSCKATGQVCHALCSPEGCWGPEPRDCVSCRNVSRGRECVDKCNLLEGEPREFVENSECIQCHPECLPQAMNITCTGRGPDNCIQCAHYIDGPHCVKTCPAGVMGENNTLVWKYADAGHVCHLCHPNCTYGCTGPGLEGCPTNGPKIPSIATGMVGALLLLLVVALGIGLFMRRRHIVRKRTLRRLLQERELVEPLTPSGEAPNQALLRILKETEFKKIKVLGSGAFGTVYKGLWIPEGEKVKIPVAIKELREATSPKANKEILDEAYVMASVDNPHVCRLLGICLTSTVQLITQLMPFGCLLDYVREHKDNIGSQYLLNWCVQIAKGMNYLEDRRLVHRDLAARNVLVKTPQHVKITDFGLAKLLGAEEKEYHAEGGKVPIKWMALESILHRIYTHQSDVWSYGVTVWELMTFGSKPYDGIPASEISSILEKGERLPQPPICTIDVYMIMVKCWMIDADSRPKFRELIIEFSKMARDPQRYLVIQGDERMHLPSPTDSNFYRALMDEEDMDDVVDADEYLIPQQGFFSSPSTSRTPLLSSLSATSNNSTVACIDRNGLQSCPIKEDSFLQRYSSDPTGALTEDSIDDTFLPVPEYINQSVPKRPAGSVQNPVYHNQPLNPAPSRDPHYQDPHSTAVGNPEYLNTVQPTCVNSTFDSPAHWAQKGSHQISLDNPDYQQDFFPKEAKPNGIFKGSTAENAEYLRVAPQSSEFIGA
T6 sequence (P17948 27-1338): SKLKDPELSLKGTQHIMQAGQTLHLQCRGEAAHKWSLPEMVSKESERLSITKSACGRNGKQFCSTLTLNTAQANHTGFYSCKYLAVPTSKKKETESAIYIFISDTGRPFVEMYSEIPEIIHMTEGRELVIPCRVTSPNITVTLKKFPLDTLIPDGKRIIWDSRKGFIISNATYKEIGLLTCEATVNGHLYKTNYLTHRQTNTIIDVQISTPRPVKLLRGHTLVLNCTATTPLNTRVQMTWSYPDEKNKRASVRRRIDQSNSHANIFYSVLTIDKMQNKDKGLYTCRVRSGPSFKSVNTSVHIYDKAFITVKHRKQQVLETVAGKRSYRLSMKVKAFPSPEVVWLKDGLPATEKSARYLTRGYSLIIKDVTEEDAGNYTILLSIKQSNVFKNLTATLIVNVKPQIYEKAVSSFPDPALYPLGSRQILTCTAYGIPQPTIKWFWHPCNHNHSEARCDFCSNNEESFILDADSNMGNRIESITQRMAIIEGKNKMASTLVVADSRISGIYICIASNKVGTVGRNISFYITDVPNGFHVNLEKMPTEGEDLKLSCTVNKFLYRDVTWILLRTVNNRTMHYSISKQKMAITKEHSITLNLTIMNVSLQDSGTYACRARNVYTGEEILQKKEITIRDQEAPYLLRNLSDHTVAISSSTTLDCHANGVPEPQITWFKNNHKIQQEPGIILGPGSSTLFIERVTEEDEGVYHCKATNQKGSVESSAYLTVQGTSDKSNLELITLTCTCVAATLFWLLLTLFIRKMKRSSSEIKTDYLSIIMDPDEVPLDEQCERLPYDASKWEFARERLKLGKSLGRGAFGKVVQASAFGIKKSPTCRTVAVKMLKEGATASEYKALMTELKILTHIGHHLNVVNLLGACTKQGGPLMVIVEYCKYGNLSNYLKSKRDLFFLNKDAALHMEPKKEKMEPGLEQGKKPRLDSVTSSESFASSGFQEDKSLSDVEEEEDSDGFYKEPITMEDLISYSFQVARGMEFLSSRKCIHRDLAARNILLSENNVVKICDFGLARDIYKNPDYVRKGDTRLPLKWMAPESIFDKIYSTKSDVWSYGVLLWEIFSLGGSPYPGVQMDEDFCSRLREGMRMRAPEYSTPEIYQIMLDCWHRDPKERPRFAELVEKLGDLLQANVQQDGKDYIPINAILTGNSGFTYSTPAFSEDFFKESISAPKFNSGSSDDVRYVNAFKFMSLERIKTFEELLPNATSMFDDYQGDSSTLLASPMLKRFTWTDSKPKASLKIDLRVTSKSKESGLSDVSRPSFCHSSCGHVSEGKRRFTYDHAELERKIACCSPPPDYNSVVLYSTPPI
T9 sequence (P35968 20-1356): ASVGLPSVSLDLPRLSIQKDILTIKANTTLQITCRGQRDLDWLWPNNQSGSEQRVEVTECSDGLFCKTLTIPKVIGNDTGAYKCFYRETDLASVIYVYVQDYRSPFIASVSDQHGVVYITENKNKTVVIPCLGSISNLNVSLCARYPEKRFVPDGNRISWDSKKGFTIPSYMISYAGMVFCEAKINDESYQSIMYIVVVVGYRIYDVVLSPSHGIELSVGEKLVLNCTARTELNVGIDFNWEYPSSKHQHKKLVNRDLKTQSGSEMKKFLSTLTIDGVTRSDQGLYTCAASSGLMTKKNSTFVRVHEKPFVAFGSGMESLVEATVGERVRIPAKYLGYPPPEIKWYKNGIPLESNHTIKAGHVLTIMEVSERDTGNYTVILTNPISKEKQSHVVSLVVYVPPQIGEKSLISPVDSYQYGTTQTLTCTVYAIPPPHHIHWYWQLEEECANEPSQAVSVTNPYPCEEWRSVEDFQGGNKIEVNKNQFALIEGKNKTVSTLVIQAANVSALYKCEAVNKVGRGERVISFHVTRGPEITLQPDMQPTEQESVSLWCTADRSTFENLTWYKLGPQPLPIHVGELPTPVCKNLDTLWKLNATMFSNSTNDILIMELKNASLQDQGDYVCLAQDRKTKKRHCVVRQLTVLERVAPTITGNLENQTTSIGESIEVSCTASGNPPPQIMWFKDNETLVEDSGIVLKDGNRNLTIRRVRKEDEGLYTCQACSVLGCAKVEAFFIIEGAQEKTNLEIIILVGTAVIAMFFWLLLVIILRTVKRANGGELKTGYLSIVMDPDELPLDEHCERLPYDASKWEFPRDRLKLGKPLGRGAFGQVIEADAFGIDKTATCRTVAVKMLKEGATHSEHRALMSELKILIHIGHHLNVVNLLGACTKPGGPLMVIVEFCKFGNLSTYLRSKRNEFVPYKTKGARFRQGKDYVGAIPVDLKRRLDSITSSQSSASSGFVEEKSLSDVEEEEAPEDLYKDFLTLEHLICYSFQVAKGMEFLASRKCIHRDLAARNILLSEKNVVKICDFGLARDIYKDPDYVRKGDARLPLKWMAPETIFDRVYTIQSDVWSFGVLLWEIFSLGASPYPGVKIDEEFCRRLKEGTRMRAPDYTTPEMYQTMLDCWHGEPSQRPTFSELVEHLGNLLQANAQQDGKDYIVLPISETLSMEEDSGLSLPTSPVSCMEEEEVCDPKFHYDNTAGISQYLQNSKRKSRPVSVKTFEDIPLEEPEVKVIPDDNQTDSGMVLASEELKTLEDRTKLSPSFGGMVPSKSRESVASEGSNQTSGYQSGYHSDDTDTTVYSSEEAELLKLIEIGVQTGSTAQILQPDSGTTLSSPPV
T10 sequence (P00533 25-1210 T790M/L858R): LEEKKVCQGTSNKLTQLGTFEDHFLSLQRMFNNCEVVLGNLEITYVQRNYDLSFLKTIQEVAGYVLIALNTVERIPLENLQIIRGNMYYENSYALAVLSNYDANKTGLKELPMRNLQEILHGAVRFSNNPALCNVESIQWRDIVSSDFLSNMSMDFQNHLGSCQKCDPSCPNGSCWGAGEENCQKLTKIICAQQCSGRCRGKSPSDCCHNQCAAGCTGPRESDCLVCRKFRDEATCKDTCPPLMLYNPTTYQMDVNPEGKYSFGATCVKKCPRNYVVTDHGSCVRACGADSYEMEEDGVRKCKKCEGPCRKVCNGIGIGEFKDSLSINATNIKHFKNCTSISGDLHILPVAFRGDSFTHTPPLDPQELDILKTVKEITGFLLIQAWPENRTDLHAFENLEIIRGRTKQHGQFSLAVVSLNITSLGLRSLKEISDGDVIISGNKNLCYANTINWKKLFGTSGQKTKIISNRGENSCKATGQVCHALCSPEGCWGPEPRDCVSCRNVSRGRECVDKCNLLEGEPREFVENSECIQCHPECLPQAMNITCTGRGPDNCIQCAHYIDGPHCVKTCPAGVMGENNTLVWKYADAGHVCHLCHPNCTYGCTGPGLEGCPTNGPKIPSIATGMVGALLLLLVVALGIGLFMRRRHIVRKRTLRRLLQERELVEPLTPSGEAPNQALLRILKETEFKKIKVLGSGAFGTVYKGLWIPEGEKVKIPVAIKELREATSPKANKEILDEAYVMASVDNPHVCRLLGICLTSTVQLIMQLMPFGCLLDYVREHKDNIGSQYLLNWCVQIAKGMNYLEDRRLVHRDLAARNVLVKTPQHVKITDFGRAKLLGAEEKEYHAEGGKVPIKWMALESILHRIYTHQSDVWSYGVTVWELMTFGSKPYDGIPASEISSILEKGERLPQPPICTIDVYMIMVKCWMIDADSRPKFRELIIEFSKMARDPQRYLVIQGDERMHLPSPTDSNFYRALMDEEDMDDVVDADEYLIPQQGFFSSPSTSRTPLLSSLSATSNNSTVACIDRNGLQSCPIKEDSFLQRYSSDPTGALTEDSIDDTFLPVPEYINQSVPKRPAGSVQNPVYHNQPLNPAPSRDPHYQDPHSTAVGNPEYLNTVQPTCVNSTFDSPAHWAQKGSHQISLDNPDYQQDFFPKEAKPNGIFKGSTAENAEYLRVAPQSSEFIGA

Structure (SMILES) | pEC50 (HUVEC) | pEC50 (HepG2) | pEC50 (HuCCT1) | pEC50 (BxPC-3) | pEC50 (H1975) | pEC50 (HT29) | pEC50 (A549) | pEC50 (HRMEC) | inhibition at 10 µM (ABL T315I) [%] | inhibition at 0.1 µM (FGFR2) [%] | inhibition at 0.1 µM (SRC) [%] | inhibition at 0.1 µM (BRAF) [%] | inhibition at 0.1 µM (PDGFRB) [%] | inhibition at 0.1 µM (VEGFR1) [%] | inhibition at 0.1 µM (FGFR1) [%] | inhibition at 10 µM (ABL) [%] | inhibition at 0.1 µM (KDR (VEGFR2)) [%] | inhibition at 0.1 µM (EGFR (ErbB1) T790M L858R) [%] | inhibition at 0.1 µM (EGFR (ErbB1)) [%] | inhibition at 0.1 µM (PDGFRA (PDGFR alpha)) [%] | also measured
COC(=O)c1cc2cc(NCc3cc(NC(=O)c4ccc5[nH]ccc5c4)ccc3C)cnc2[nH]1 [OR0617] | 6.00 to 7.00 | 6.00 to 7.00 | ≤ 6.00 | ≤ 6.00 | ≤ 6.00 | ≤ 6.00 | ≤ 6.00 | ≤ 6.00 | < 50 | < 50 | ≥ 50 | ≥ 50 | < 50 | < 50 | < 50 | ≥ 50 | ≥ 50 | < 50 | < 50 | ≥ 50 | 
COC(=O)c1cc2cc(NC(=O)c3cc(NC(=O)c4ccc(CN5CCN(C)CC5)c(C(F)(F)F)c4)ccc3C)cnc2[nH]1 [OR0744] | 6.00 to 7.00 | 6.00 to 7.00 | ≤ 6.00 |  | ≤ 6.00 | 6.00 to 7.00 | 6.00 to 7.00 | 6.00 to 7.00 |  | ≥ 50 | ≥ 50 | ≥ 50 |  |  |  |  | ≥ 50 | ≥ 50 | ≥ 50 | ≥ 50 | pEC50 (HeLa): 6.00 to 7.00; pEC50 (MDA-MB-231): 6.00 to 7.00; pEC50 (HuH7): 6.00 to 7.00; pEC50 (HuH6 Clone 5): ≤ 6.00
COC(=O)c1cc2cc(NCc3cc(NC(=O)c4cncc(C(F)(F)F)c4)ccc3C)cnc2[nH]1 [OR0604] | 6.00 to 7.00 | ≥ 7.00 | ≤ 6.00 | 6.00 to 7.00 | ≤ 6.00 | ≤ 6.00 | 6.00 to 7.00 |  | < 50 | < 50 | ≥ 50 | ≥ 50 | ≥ 50 | < 50 | < 50 | ≥ 50 | ≥ 50 | < 50 | ≥ 50 | ≥ 50 | pEC50 (MDA-MB-231): ≥ 7.00; pEC50 (HuH7): 6.00 to 7.00; pEC50 (PC-3): ≤ 6.00; pEC50 (HuH6 Clone 5): ≤ 6.00
COC(=O)c1cc2cc(NCc3cc(NC(=O)c4ccc(CN5CCNCC5)c(C(F)(F)F)c4)ccc3C)cnc2[nH]1 [OR0613] | ≥ 7.00 | ≥ 7.00 | ≤ 6.00 | 6.00 to 7.00 | 6.00 to 7.00 | ≥ 7.00 | 6.00 to 7.00 |  | ≥ 50 | ≥ 50 | ≥ 50 | ≥ 50 | < 50 | < 50 | ≥ 50 | ≥ 50 | ≥ 50 | ≥ 50 | ≥ 50 | ≥ 50 | pEC50 (MDA-MB-231): ≥ 7.00; pEC50 (HuH7): 6.00 to 7.00; pEC50 (PC-3): ≤ 6.00; pEC50 (HuH6 Clone 5): ≤ 6.00
CCN(CC)CCNC(=O)c1c(C)[nH]c(/C=C2\C(=O)Nc3ccc(F)cc32)c1C [Sunitinib, reference compound] |  |  |  | ≤ 6.00 |  |  |  |  |  |  |  |  |  |  |  |  |  |  |  |  | pEC50 (Caki-2): ≤ 6.00
COC(=O)c1cc2cc(NCc3cc(NC(=O)c4ccc5[nH]nnc5c4)ccc3C)cnc2[nH]1 [OR0616] | ≤ 6.00 | ≤ 6.00 |  | ≤ 6.00 | ≤ 6.00 | ≤ 6.00 | ≤ 6.00 | ≤ 6.00 | < 50 | < 50 | < 50 | ≥ 50 | ≥ 50 | < 50 | < 50 | ≥ 50 | < 50 | < 50 | < 50 | ≥ 50 | 
